Source: patent US11434246B2, “EP4 antagonists” (Eisai R&D Management Co., Ltd., priority 2015, dated 2022)

Biological target: EP4 (Homo sapiens, UniProt P35408)
Assay: EP4 Antagonism by CRE-PLAP Reporter Assay (SE302 cells, PGE2-stimulated)
Type: cell-based
Design: HEK293 cells express endogenous EP4; endogenous in cells; host or cells: SE302 (HEK293 clone with CRE-PLAP reporter)
Conditions: SE302 (HEK293) cells, 3 ng/mL PGE2, overnight; single or multiple assay average values
Outline: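 HEK293-derived SE302 cells with endogenous EP4 and CRE-driven secreted PLAP, in serum-free medium with 0.1% BSA, stimulated overnight with 3 ng/mL PGE2 plus compound. Supernatant PLAP read by luminescence (pH 11 carbonate buffer, 2 h). IC50 from % of control, normalized to DMSO with and without PGE2.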

EP4, sequence (P35408 whole entry): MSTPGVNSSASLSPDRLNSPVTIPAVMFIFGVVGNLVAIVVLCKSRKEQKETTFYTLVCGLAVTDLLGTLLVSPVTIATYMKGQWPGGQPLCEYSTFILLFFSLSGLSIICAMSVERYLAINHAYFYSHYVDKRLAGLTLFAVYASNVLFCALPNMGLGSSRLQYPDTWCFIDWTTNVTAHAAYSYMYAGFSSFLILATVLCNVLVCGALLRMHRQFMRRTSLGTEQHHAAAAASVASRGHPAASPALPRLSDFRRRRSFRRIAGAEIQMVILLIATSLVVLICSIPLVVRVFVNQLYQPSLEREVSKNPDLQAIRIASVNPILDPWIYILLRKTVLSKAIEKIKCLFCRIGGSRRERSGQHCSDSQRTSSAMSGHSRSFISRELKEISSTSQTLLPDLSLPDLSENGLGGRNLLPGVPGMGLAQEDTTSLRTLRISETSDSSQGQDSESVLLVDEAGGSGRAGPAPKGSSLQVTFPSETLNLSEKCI

| SMILES | IC50 |
| --- | --- |
| C[C@H](NC(=O)c1c(C(F)(F)F)nn2c1N(Cc1cccc(C(F)(F)F)c1)CC2)c1ccc(C(=O)O)c(F)c1 [Compound 25, (S)-2-fluoro-4-(1-(6-(trifluoromethyl)-1-(3-(trifluoromethyl)benzyl)-2,3-dihydro-1H-imidazo[1,2-b]pyrazole-7-carboxamido)ethyl)benzoic acid] | 1.1 nM |
| C[C@H](NC(=O)c1c(C(F)(F)F)nn2c1N(Cc1ccc(C(F)(F)F)cc1)CC2)c1ccc(C(=O)O)c(F)c1 [Compound 21, (S)-2-fluoro-4-(1-(6-(trifluoromethyl)-1-(4-(trifluoromethyl)benzyl)-2,3-dihydro-1H-imidazo[1,2-b]pyrazole-7-carboxamido)ethyl)benzoic Acid] | 2.85 nM |
| C[C@H](NC(=O)c1c(C(F)(F)F)nn2c1N(Cc1cccc(Cl)c1)CC2)c1ccc(C(=O)O)cc1 [Compound 12, (S)-4-(1-(1-(3-chlorobenzyl)-6-(trifluoromethyl)-2,3-dihydro-1H-imidazo[1,2-b]pyrazole-7-carboxamido)ethyl)benzoic Acid] | 2.23 nM |
| C[C@H](NC(=O)c1c(C(F)(F)F)nn2c1N(Cc1ccc(C(F)(F)F)cc1)CC2)c1ccc(-c2nn[nH]n2)cc1 [Compound 37, (S)—N-(1-(4-(2H-tetrazol-5-yl)phenyl)ethyl)-6-(trifluoromethyl)-1-(4-(trifluoromethyl)benzyl)-2,3-dihydro-1H-imidazo[1,2-b]pyrazole-7-carboxamide] | 0.45 nM |
| C[C@H](NC(=O)c1c(C(F)(F)F)nn2c1N(Cc1ccccc1C(F)(F)F)CC2)c1ccc(C(=O)O)cc1 [Compound 4, (S)-4-(1-(6-(trifluoromethyl)-1-(2-(trifluoromethyl)benzyl)-2,3-dihydro-1H-imidazo[1,2-b]pyrazole-7-carboxamido)ethyl)benzoic Acid] | 22.4 nM |
| COc1ccc(CN2CCn3nc(C(F)(F)F)c(C(=O)N[C@@H](C)c4ccc(C(=O)O)cc4)c32)cc1 [Compound 8, (S)-4-(1-(1-(4-methoxybenzyl)-6-(trifluoromethyl)-2,3-dihydro-1H-imidazo[1,2-b]pyrazole-7-carboxamido)ethyl)benzoic Acid] | 8.03 nM |
| C[C@H](NC(=O)c1c(C(F)(F)F)nn2c1N(Cc1ccc(Cl)c(Cl)c1)CC2)c1ccc(C(=O)O)cc1 [Compound 13, (S)-4-(1-(1-(3,4-dichlorobenzyl)-6-(trifluoromethyl)-2,3-dihydro-1H-imidazo[1,2-b]pyrazole-7-carboxamido)ethyl)benzoic Acid] | 0.44 nM |
| COc1cccc(CN2CCn3nc(C(F)(F)F)c(C(=O)N[C@@H](C)c4ccc(C(=O)O)cc4)c32)c1 [Compound 9, (S)-4-(1-(1-(3-methoxybenzyl)-6-(trifluoromethyl)-2,3-dihydro-1H-imidazo[1,2-b]pyrazole-7-carboxamido)ethyl)benzoic Acid] | 1.41 nM |
| C[C@H](NC(=O)c1c(C(F)(F)F)nn2c1N(Cc1ccc(C(F)(F)F)cc1)CC2)c1ccc(C(=O)O)cc1 [Compound 3, (S)-4-(1-(6-(trifluoromethyl)-1-(4-(trifluoromethyl)benzyl)-2,3-dihydro-1H-imidazo[1,2-b]pyrazole-7-carboxamido)ethyl)benzoic acid] | 3.19 nM |
| C[C@H](NC(=O)c1c(C(F)(F)F)nn2c1N(Cc1cc(Cl)cc(C(F)(F)F)c1)CC2)c1ccc(C(=O)O)cc1 [Compound 6, (S)-4-(1-(1-(3-chloro-5-(trifluoromethyl)benzyl)-6-(trifluoromethyl)-2,3-dihydro-1H-imidazo[1,2-b]pyrazole-7-carboxamido)ethyl)benzoic Acid] | 0.14 nM |
| Cc1nn2c(c1C(=O)N[C@@H](C)c1ccc(C(=O)O)cc1)N(Cc1ccc(Cl)cc1)CC2 [Compound 32, (S)-4-(1-(1-(4-chlorobenzyl)-6-methyl-2,3-dihydro-1H-imidazo[1,2-b]pyrazole-7-carboxamido)ethyl)benzoic Acid] | 4.23 nM |
| O=C(O)c1ccc(C2(NC(=O)c3c(C(F)(F)F)nn4c3N(Cc3ccc(C(F)(F)F)cc3)CC4)CC2)cc1 [Compound 29, 4-(1-(6-(trifluoromethyl)-1-(4-(trifluoromethyl)benzyl)-2,3-dihydro-1H-imidazo[1,2-b]pyrazole-7-carboxamido)cyclopropyl)benzoic Acid] | 2.19 nM |

The next lines start with the values.

| IC50 | SMILES |
| --- | --- |
| 0.93 nM | C[C@H](NC(=O)c1c(C(F)(F)F)nn2c1N(Cc1cccc(CCl)c1)CC2)c1ccc(C(=O)O)cc1 [Compound 65, (S)-4-(1-(1-(3-(chloromethyl)benzyl)-6-(trifluoromethyl)-2,3-dihydro-1H-imidazo[1,2-b]pyrazole-7-carboxamido)ethyl)benzoic acid] |
| 4.71 nM | Cc1cc([C@H](C)NC(=O)c2c(C(F)(F)F)nn3c2N(Cc2ccc(C(F)(F)F)cc2)CC3)ccc1-c1nn[nH]n1 [Compound 58, (S)—N-(1-(3-methyl-4-(2H-tetrazol-5-yl)phenyl)ethyl)-6-(trifluoromethyl)-1-(4-(trifluoromethyl)benzyl)-2,3-dihydro-1H-imidazo[1,2-b]pyrazole-7-carboxamide] |
| 18.5 nM | C[C@H](NC(=O)c1c(C(F)(F)F)nn2c1N(Cc1ccc(N(C)C)cc1)CC2)c1ccc(C(=O)O)cc1 [Compound 88, (S)-4-(1-(1-(4-(dimethylamino)benzyl)-6-(trifluoromethyl)-2,3-dihydro-1H-imidazo[1,2-b]pyrazole-7-carboxamido)ethyl)benzoic Acid] |
| 0.358 nM | C[C@H](NC(=O)c1c(C(F)(F)F)nn2c1N(Cc1cc(F)cc(C(F)(F)F)c1)CC2)c1ccc(C(=O)O)cc1 [Compound 84, (S)-4-(1-(1-(3-fluoro-5-(trifluoromethyl)benzyl)-6-(trifluoromethyl)-2,3-dihydro-1H-imidazo[1,2-b]pyrazole-7-carboxamido)ethyl)benzoic acid] |
| 4.26 nM | C[C@H](NC(=O)c1c(C(F)(F)F)nn2c1N(Cc1cccc(C(F)(F)CO)c1)CC2)c1ccc(C(=O)O)cc1 [Compound 95, (S)-4-(1-(1-(3-(1,1-Difluoro-2-hydroxyethyl)benzyl)-6-(trifluoromethyl)-2,3-dihydro-1H-imidazo[1,2-b]pyrazole-7-carboxamido)ethyl)benzoic Acid] |
| 48.9 nM | C[C@H](NC(=O)c1c(C(F)(F)F)nn2c1N(c1ccc(C(F)(F)F)cc1)CC2)c1ccc(C(=O)O)cc1 [Compound 47, (S)-4-(1-(6-(trifluoromethyl)-1-(4-(trifluoromethyl)phenyl)-2,3-dihydro-1H-imidazo[1,2-b]pyrazole-7-carboxamido)ethyl)benzoic Acid] |
| 17.1 nM | C[C@H](NC(=O)c1c(C(F)(F)F)nn2c1N(Cc1cccc(C(F)(F)F)c1)CC2)c1ccc(C(=O)O)nc1 [Compound 38, (S)-5-(1-(6-(trifluoromethyl)-1-(3-(trifluoromethyl)benzyl)-2,3-dihydro-1H-imidazo[1,2-b]pyrazole-7-carboxamido)ethyl)picolinic Acid] |
| 58.1 nM | C[C@H](NC(=O)c1c(C(F)(F)F)nn2c1N(Cc1cccc(C(F)(F)F)c1)C[C@H]2COCc1ccccc1)c1ccc(C(=O)O)cc1 [Compound 80, 4-((S)-1-((S)-3-((benzyloxy)methyl)-6-(trifluoromethyl)-1-(3-(trifluoromethyl)benzyl)-2,3-dihydro-1H-imidazo[1,2-b]pyrazole-7-carboxamido)ethyl)benzoic Acid] |
| 6.59 nM | C[C@H](NC(=O)c1c(CO)nn2c1N(Cc1cccc(C(F)(F)F)c1)CC2)c1ccc(C(=O)O)cc1 [Compound 93, (S)-4-(1-(6-(Hydroxymethyl)-1-(3-(trifluoromethyl)benzyl)-2,3-dihydro-1H-imidazo[1,2-b]pyrazole-7-carboxamido)ethyl)benzoic Acid] |
| 150 nM | C[C@H](NC(=O)c1c(C(F)(F)F)nn2c1N(Cc1ccc(C(F)(F)F)cc1)CC2)c1ccc(-c2ccoc2)cc1 [Compound 40, (S)—N-(1-(4-(furan-3-yl)phenyl)ethyl)-6-(trifluoromethyl)-1-(4-(trifluoromethyl)benzyl)-2,3-dihydro-1H-imidazo[1,2-b]pyrazole-7-carboxamide] |
| 100 nM | C[C@H](NC(=O)c1c(C(F)(F)F)nn2c1N(Cc1ccccc1C(F)(F)F)CCC2)c1ccc(C(=O)O)cc1 [Compound 46, (S)-4-(1-(2-(trifluoromethyl)-4-(2-(trifluoromethyl)benzyl)-4,5,6,7-tetrahydropyrazolo[1,5-a]pyrimidine-3-carboxamido)ethyl)benzoic Acid] |
| 39 nM | COC(=O)c1ccc([C@H](C)NC(=O)c2c(C(F)(F)F)nn3c2N(C(=O)c2ccccc2F)CC3)cc1 [Compound 102] |
| 1.3 nM | C[C@H](NC(=O)c1c(C(F)(F)F)nn2c1N(Cc1ccc(Cl)c(C(F)(F)F)c1)CC2)c1ccc(C(=O)O)cc1 [Compound 63, (S)-4-(1-(1-(4-chloro-3-(trifluoromethyl)benzyl)-6-(trifluoromethyl)-2,3-dihydro-1H-imidazo[1,2-b]pyrazole-7-carboxamido)ethyl)benzoic acid] |
| 0.343 nM | C[C@H](NC(=O)c1c(C(F)F)nn2c1N(Cc1cccc(C(F)(F)F)c1)CC2)c1ccc(C(=O)O)cc1 [Compound 94, (S)-4-(1-(6-(Difluoromethyl)-1-(3-(trifluoromethyl)benzyl)-2,3-dihydro-1H-imidazo[1,2-b]pyrazole-7-carboxamido)ethyl)benzoic Acid] |
| 0.636 nM | C[C@H](NC(=O)c1c(CF)nn2c1N(Cc1cccc(C(F)(F)F)c1)CC2)c1ccc(C(=O)O)cc1 [Compound 91, (S)-4-(1-(6-(Fluoromethyl)-1-(3-(trifluoromethyl)benzyl)-2,3-dihydro-1H-imidazo[1,2-b]pyrazole-7-carboxamido)ethyl)benzoic Acid] |
| 6.37 nM | C[C@H](NC(=O)c1c(C(F)(F)F)nn2c1N(Cc1cc(N(C)C)cc(C(F)(F)F)c1)CC2)c1ccc(C(=O)O)cc1 [Compound 90, (S)-4-(1-(1-(3-(dimethylamino)-5-(trifluoromethyl)benzyl)-6-(trifluoromethyl)-2,3-dihydro-1H-imidazo[1,2-b]pyrazole-7-carboxamido)ethyl)benzoic Acid] |
